Measured values taken from US8940936B2, “Aryloxy phenoxy acrylic compound having HIF-1 inhibition activity, method for preparing same, and pharmaceutical composition containing same as an active ingredient” (Korea Research Institute of Bioscience and Biotechnology, priority 2010, dated 2015).

Tests used:
[1] = system: VEGF (vascular endothelial growth factor A); experiment: Expression of HIF-1 target gene VEGF (RT-PCR, HCT116); type: cell-based, human
Experimental: (§1) To investigate HIF-1 inhibition activity of the compound of the present invention, the inhibition of VEGF and EPO, two most representative HIF-1 target genes, by the compound of formula 1 prepared in example 1 was measured. Particularly, the colon cancer cell line HCT116 was used for the measurement as follows.
(§2) The human colon cancer cell line HCT116 was seeded in cell culture vessel at the density of 2×10^5 cell/ml, followed by culture for 24 hours. The cells were pretreated in hypoxic condition (oxygen 1%; nitrogen 94%; carbon dioxide 5%) for 4 hours to induce the accumulation of HIF-1α. The cells were treated with the compound of formula 1 prepared in example 1 at the concentrations of 0, 10, and 20 μM, followed by culture for 12 hours in hypoxic condition. Then, mRNA was extracted by using trizol. To compare the expression with that of HIF-1 target gene treated with the compound prepared in comparative example 1, the control was treated with the compound of comparative example 1 at the concentrations of 0, 10, 15, and 20 μM. From the extracted mRNA, cDNA was synthesized by using RT-PCR kit (Invitrogen). The amounts of mRNAs of the HIF-1α target genes VEGF (vascular endothelial growth factor A) and EPO (erythropoietin) were measured by using RT-PCR and real-time RT-PCR. […]

HIF-1α = HIF-1α expression in tumor tissue (tumor tissue immune response experiment, Caki-1 model); type: in vivo, mouse; conditions: Caki-1 tumor, optical microscope; FIG. 6
Experimental: In addition, to investigate whether or not the anticancer activity shown in experimental example 5 was attributed to the decrease of HIF-1α expression, tumor tissue immune response experiment was performed.

HCT116 cells = experiment: Cell migration inhibition activity (wound-healing experiment); type: cell-based, human; conditions: 10 μM, 48 hours, FIG. 9
Experimental: To evaluate cell migration inhibition effect of the compound of example 1, wound-healing experiment was performed. Particularly, an insert (Ibidi) was placed in the center of a 6-well cell culture dish and HCT116 cells (3×10^5 cell/ml) were loaded in each well by 70 μl. Medium was filled in around the insert. 24 hours later, the insert was carefully eliminated by using forceps, and the cells were washed with medium carefully not to be detached from the bottom of the culture dish. The control group was added with the diluted medium supplemented with DMSO. The experimental group was added with the diluted medium supplemented with 10 μM of the compound of example 1. 48 hours later, cell migration in each group was observed.

[2] = system: B16F10 melanoma cell line; experiment: Angiogenesis inhibition activity in B16F10 tumor tissue; type: in vivo, mouse; conditions: FIG. 7, FIG. 8
Experimental: The following experiment was performed to investigate if the compound of formula 1 could inhibit angiogenesis along with the tumor growth.
Particularly, the experimental group composed of 5 female mice (C57BL) at 6 weeks was transplanted with B16F10 melanoma cell line. After the cancer cells were grown, the mice were treated with the compound of formula 1 via intraperitoneal injection at the dose of […] for 5 days. Inhibition of angiogenesis and the tumor growth were observed. In the meantime, the control group was treated with the mixed solution comprising 10% DMAC, 10% cremophor and 80% buffer (pH 10) every day. The comparative group was treated with topotecan at the dose of 2 mg/kg once every other day. Weight changes and the newly generated blood vessels were measured and the results are shown in Table 7, Table 8, FIG. 7, and FIG. 8. The tumor volume shown in Table 8 was calculated by the mathematical formula 1 of experimental example 4 and the inhibition rate was calculated by the mathematical formula 2 of experimental example 4.

EPO (erythropoietin) = experiment: Expression of HIF-1 target gene EPO (RT-PCR, HCT116); type: cell-based, human; conditions: mRNA, HCT116, hypoxic condition, 0, 10, 20 μM; FIG. 5
Experimental: as §1, §2

Structure (SMILES): COC(=O)c1cccc(NC(=O)/C=C/Oc2ccc(C34CC5CC(CC(C5)C3)C4)cc2)c1 [Example 1, (E)-3-[3-(4-Adamantan-1-yl-phenoxy)-acryloylamino]-benzoic acid methyl ester]
- expression of GAPDH ([1]; internal control gene, HCT116, hypoxic condition): did not change
- expression of VEGF ([1]; mRNA, HCT116, hypoxic condition, 0, 10, 20 μM, FIG. 5): inhibited the expressions of VEGF and EPO, the HIF-1 target genes, dose-dependently
- HIF-1α expression in tumor tissue (HIF-1α): significantly reduced
- cell migration (HCT116 cells): significantly reduced cell migration
- reduction of angiogenesis compared with non-treated group [2]: ~40%
- expression of EPO (EPO (erythropoietin)): inhibited the expressions of VEGF and EPO, the HIF-1 target genes, dose-dependently
